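Test compounds were applied to cells in 96-well plates for 48 hours at 5 doses. The concentration for 50% growth inhibition is given as GI50.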 The source made the active and inactive calls. Cut-off read from the data, not from the text of the source: active = GI50 up to about 1.1 µM and inactive = higher.
Legend:
Experiment in all cases: NCI-60 cell line screen, 48 h
M14 = tested on: M14
DU-145 = tested on: DU-145
SK-OV-3 = tested on: SK-OV-3
SNB-19 = tested on: SNB-19
HCT-116 = tested on: HCT-116
OVCAR-3 = tested on: OVCAR-3
Malme-3M = tested on: Malme-3M
SK-MEL-28 = tested on: SK-MEL-28
SF-539 = tested on: SF-539
MDA-MB-435 = tested on: MDA-MB-435
HCC 2998 = tested on: HCC 2998
A498 = tested on: A498
A549 = tested on: A549
NCI/ADR-RES = tested on: NCI/ADR-RES
EKVX = tested on: EKVX
T47D = tested on: T47D
MCF7 = tested on: MCF7
CAKI-1 = tested on: CAKI-1
NCI-H522 = tested on: NCI-H522
K562 = tested on: K562
OVCAR-4 = tested on: OVCAR-4
SF-268 = tested on: SF-268
OVCAR-8 = tested on: OVCAR-8
UO-31 = tested on: UO-31
RPMI-8226 = tested on: RPMI-8226
Hs-578T = tested on: Hs-578T
MDA-N = tested on: MDA-N
RXF 393 = tested on: RXF 393
HT-29 = tested on: HT-29
HOP-92 = tested on: HOP-92
LOX IMVI = tested on: LOX IMVI
HCT-15 = tested on: HCT-15
SK-MEL-2 = tested on: SK-MEL-2
BT-549 = tested on: BT-549
IGROV-1 = tested on: IGROV-1
OVCAR-5 = tested on: OVCAR-5
COLO 205 = tested on: COLO 205
MDA-MB-231 = tested on: MDA-MB-231
SN12C = tested on: SN12C
NCI-H226 = tested on: NCI-H226
SW-620 = tested on: SW-620
U-251 = tested on: U-251
786-0 = tested on: 786-0
UACC-257 = tested on: UACC-257
SNB-75 = tested on: SNB-75
KM12 = tested on: KM12
UACC-62 = tested on: UACC-62
SR = tested on: SR
PC-3 = tested on: PC-3
TK-10 = tested on: TK-10
MOLT-4 = tested on: MOLT-4
SK-MEL-5 = tested on: SK-MEL-5
NCI-H460 = tested on: NCI-H460
HL-60 = tested on: HL-60
ACHN = tested on: ACHN
NCI-H23 = tested on: NCI-H23
SF-295 = tested on: SF-295
HOP-62 = tested on: HOP-62
CCRF-CEM = tested on: CCRF-CEM

`S=c1nc2[nH]c3ccc(Br)cc3c2n[nH]1` was tested, and the GI50 (M14) was 51.5 µM (inactive), the GI50 (DU-145) was 85.3 µM (inactive) and the GI50 (SK-OV-3) was > 100 µM (inactive). For the same compound, the GI50 (SNB-19) was > 100 µM (inactive), the GI50 (HCT-116) was 70.5 µM (inactive) and the GI50 (OVCAR-3) was 41 µM (inactive). The GI50 (Malme-3M) was 83.8 µM (inactive), the GI50 (SK-MEL-28) was > 100 µM (inactive) and the GI50 (SF-539) was > 100 µM (inactive). For the same compound, the GI50 (MDA-MB-435) was 20.7 µM (inactive), the GI50 (HCC 2998) was > 100 µM (inactive) and the GI50 (A498) was > 100 µM (inactive). The GI50 (A549) was 55 µM (inactive), the GI50 (NCI/ADR-RES) was 39.8 µM (inactive) and the GI50 (EKVX) was 14.2 µM (inactive). For the same compound, the GI50 (T47D) was > 100 µM (inactive), the GI50 (MCF7) was 19 µM (inactive) and the GI50 (CAKI-1) was 69.8 µM (inactive). For the same compound, the GI50 (NCI-H522) was 24.3 µM (inactive), the GI50 (K562) was 47.8 µM (inactive) and the GI50 (OVCAR-4) was 25 µM (inactive). For the same compound, the GI50 (SF-268) was 27.9 µM (inactive), the GI50 (OVCAR-8) was 52.1 µM (inactive) and the GI50 (UO-31) was 72.8 µM (inactive). For the same compound, the GI50 (RPMI-8226) was 37.1 µM (inactive), the GI50 (Hs-578T) was 28.9 µM (inactive) and the GI50 (MDA-N) was 16.7 µM (inactive). The GI50 (RXF 393) was > 100 µM (inactive), the GI50 (HT-29) was 35 µM (inactive) and the GI50 (HOP-92) was > 100 µM (inactive). The GI50 (LOX IMVI) was 30.1 µM (inactive), the GI50 (HCT-15) was 22.1 µM and the GI50 (SK-MEL-2) was 25.6 µM (inactive). For the same compound, the GI50 (BT-549) was 50.2 µM (inactive), the GI50 (IGROV-1) was 19.3 µM (inactive) and the GI50 (OVCAR-5) was > 100 µM (inactive). For the same compound, the GI50 (COLO 205) was 98.4 µM (inactive), the GI50 (MDA-MB-231) was 49.9 µM (inactive) and the GI50 (SN12C) was 66.1 µM (inactive). The GI50 (NCI-H226) was 94.6 µM (inactive), the GI50 (SW-620) was 53 µM (inactive) and the GI50 (U-251) was 53.2 µM (inactive). For the same compound, the GI50 (786-0) was 35.2 µM (inactive), the GI50 (UACC-257) was 62.5 µM (inactive) and the GI50 (SNB-75) was 40.4 µM (inactive). For the same compound, the GI50 (KM12) was 29.2 µM (inactive), the GI50 (UACC-62) was 30.5 µM (inactive) and the GI50 (SR) was 19 µM (inactive). The GI50 (PC-3) was 43.1 µM (inactive), the GI50 (TK-10) was > 100 µM (inactive) and the GI50 (MOLT-4) was 30.3 µM (inactive). For the same compound, the GI50 (SK-MEL-5) was 36.4 µM (inactive), the GI50 (NCI-H460) was 63.1 µM (inactive) and the GI50 (HL-60) was 12 µM (inactive).
For `CC1CC(=O)N(N(C)C)C(C#N)(C#N)C1(C#N)C#N` (configuration not stated), the GI50 (M14) was 15.8 µM (inactive), the GI50 (DU-145) was 18.2 µM (inactive) and the GI50 (SK-OV-3) was 29.5 µM (inactive). The GI50 (SNB-19) was 28.7 µM (inactive), the GI50 (HCT-116) was 17 µM (inactive) and the GI50 (OVCAR-3) was 20.5 µM (inactive). The GI50 (Malme-3M) was 12.2 µM (inactive), the GI50 (SK-MEL-28) was 16.1 µM (inactive) and the GI50 (SF-539) was 24.2 µM (inactive). The GI50 (MDA-MB-435) was 17 µM (inactive), the GI50 (HCC 2998) was 18.5 µM (inactive) and the GI50 (A498) was 17.8 µM (inactive). The GI50 (A549) was 24.8 µM (inactive), the GI50 (NCI/ADR-RES) was 21.7 µM (inactive) and the GI50 (EKVX) was 23 µM (inactive). For the same compound, the GI50 (T47D) was 15.5 µM (inactive), the GI50 (MCF7) was 22.4 µM (inactive) and the GI50 (CAKI-1) was 2.3 µM (inactive). For the same compound, the GI50 (NCI-H522) was 2.77 µM (inactive), the GI50 (K562) was 2.81 µM (inactive) and the GI50 (OVCAR-4) was 18.3 µM (inactive). For the same compound, the GI50 (SF-268) was 35.8 µM (inactive), the GI50 (OVCAR-8) was 20.9 µM (inactive) and the GI50 (ACHN) was 15.4 µM (inactive). The GI50 (UO-31) was 16.9 µM (inactive), the GI50 (RPMI-8226) was 4.14 µM (inactive) and the GI50 (Hs-578T) was 23.2 µM (inactive). For the same compound, the GI50 (MDA-N) was 18.1 µM (inactive), the GI50 (NCI-H23) was 20 µM (inactive) and the GI50 (RXF 393) was 10.6 µM (inactive). The GI50 (HT-29) was 17.2 µM (inactive), the GI50 (HOP-92) was 7.6 µM (inactive) and the GI50 (LOX IMVI) was 17 µM (inactive). The GI50 (HCT-15) was 16.3 µM, the GI50 (SK-MEL-2) was 25.5 µM (inactive) and the GI50 (BT-549) was 15.7 µM (inactive). The GI50 (IGROV-1) was 20.2 µM (inactive), the GI50 (OVCAR-5) was 23.9 µM (inactive) and the GI50 (SF-295) was > 50.1 µM (inactive). For the same compound, the GI50 (COLO 205) was 3 µM (inactive), the GI50 (MDA-MB-231) was 15.2 µM (inactive) and the GI50 (HOP-62) was 26.1 µM (inactive). For the same compound, the GI50 (SN12C) was 21 µM (inactive), the GI50 (CCRF-CEM) was 0.638 µM (active) and the GI50 (NCI-H226) was 28.1 µM (inactive). For the same compound, the GI50 (SW-620) was 5.12 µM (inactive), the GI50 (U-251) was 20.9 µM (inactive) and the GI50 (786-0) was 12.2 µM (inactive). The GI50 (UACC-257) was 15.1 µM (inactive), the GI50 (SNB-75) was > 35.6 µM (inactive) and the GI50 (KM12) was > 44.1 µM (inactive). For the same compound, the GI50 (UACC-62) was 18.3 µM (inactive), the GI50 (SR) was 4.99 µM (inactive) and the GI50 (PC-3) was 18.4 µM (inactive). The GI50 (TK-10) was 16 µM (inactive), the GI50 (MOLT-4) was 1.87 µM (inactive) and the GI50 (SK-MEL-5) was 21.9 µM (inactive). For the same compound, the GI50 (HL-60) was 0.653 µM (active).
